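Each compound was tested at five concentrations against cells in 96-well plates for 48 hours. Here, GI50 denotes the concentration required for 50% inhibition of growth.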 The source made the active and inactive calls. Cut-off read from the data, not from the text of the source: active = GI50 up to about 1.1 µM and inactive = higher.
Legend:
Assay in all cases: NCI anticancer screen, dose series, 48 h
RXF 393 = system: RXF 393
PC-3 = system: PC-3
SK-MEL-28 = system: SK-MEL-28
SF-539 = system: SF-539
SK-MEL-5 = system: SK-MEL-5
SNB-19 = system: SNB-19
HL-60 = system: HL-60
NCI-H460 = system: NCI-H460
K562 = system: K562
CAKI-1 = system: CAKI-1
MOLT-4 = system: MOLT-4
SNB-75 = system: SNB-75
NCI/ADR-RES = system: NCI/ADR-RES
UO-31 = system: UO-31
Hs-578T = system: Hs-578T
MCF7 = system: MCF7
MDA-MB-231 = system: MDA-MB-231
HCC 2998 = system: HCC 2998
DU-145 = system: DU-145
SK-MEL-2 = system: SK-MEL-2

Measured: GI50

O=[N+]([O-])c1ccc(/C=C/c2cc(-c3ccccc3)nc3ccc4ccccc4c23)cc1
inactive: RXF 393 > 100 µM | PC-3 > 100 µM | SK-MEL-28 > 100 µM | SF-539 > 100 µM | SK-MEL-5 > 100 µM | SNB-19 > 100 µM | HL-60 > 100 µM | NCI-H460 > 100 µM | K562 > 100 µM | CAKI-1 > 100 µM | MOLT-4 > 100 µM | SNB-75 16.9 µM | NCI/ADR-RES > 100 µM | UO-31 > 100 µM | Hs-578T > 100 µM | MCF7 57 µM | MDA-MB-231 > 100 µM | HCC 2998 > 100 µM | DU-145 > 100 µM

COc1cc(/C=C2\N=C(c3ccccc3)N(c3nc4ccc(Sc5ccccc5)cc4[nH]3)C2=O)ccc1O
inactive: RXF 393 28.5 µM | PC-3 24.4 µM | SK-MEL-28 21.2 µM | SK-MEL-5 14.7 µM | SNB-19 31.8 µM | HL-60 11.2 µM | NCI-H460 19.5 µM | K562 11.7 µM | CAKI-1 23.9 µM | MOLT-4 26.1 µM | SNB-75 33.6 µM | NCI/ADR-RES 18.7 µM | UO-31 28.7 µM | Hs-578T 32.4 µM | MCF7 17.5 µM | MDA-MB-231 25.6 µM | SK-MEL-2 13.5 µM | HCC 2998 15.8 µM | DU-145 35.7 µM

COc1ccc(N2C(=O)CC(c3c[nH]c4ccccc34)C2=O)cc1 (configuration not stated)
inactive: RXF 393 > 100 µM | PC-3 > 100 µM | SK-MEL-28 > 100 µM | SF-539 > 100 µM | SK-MEL-5 > 100 µM | SNB-19 > 100 µM | HL-60 > 100 µM | NCI-H460 > 100 µM | K562 > 100 µM | CAKI-1 > 100 µM | MOLT-4 > 100 µM | NCI/ADR-RES 97.3 µM | UO-31 > 100 µM | Hs-578T 9.08 µM | MCF7 > 100 µM | MDA-MB-231 > 100 µM | SK-MEL-2 > 100 µM | HCC 2998 > 100 µM | DU-145 > 100 µM

CCOC(=O)/C=C/[C@H](O[Si](c1ccccc1)(c1ccccc1)c1ccccc1)C(C)(C)C
inactive: RXF 393 15.5 µM | PC-3 10.5 µM | SK-MEL-28 > 10 µM | SF-539 > 31.6 µM | SK-MEL-5 10.2 µM | SNB-19 > 31.6 µM | HL-60 > 100 µM | NCI-H460 > 10 µM | K562 7.78 µM | CAKI-1 28.4 µM | MOLT-4 14.1 µM | SNB-75 > 31.6 µM | NCI/ADR-RES 28.5 µM | UO-31 > 31.6 µM | Hs-578T 20.5 µM | MCF7 > 31.6 µM | MDA-MB-231 > 31.6 µM | SK-MEL-2 > 31.6 µM | HCC 2998 5.92 µM | DU-145 > 31.6 µM

NC1=NN(c2ccccc2)C2(c3ccncc3C(=O)O)C1C(N)=NN2c1ccccc1 (configuration not stated)
inactive: RXF 393 > 100 µM | PC-3 > 100 µM | SK-MEL-28 > 100 µM | SF-539 > 100 µM | SK-MEL-5 > 100 µM | SNB-19 > 100 µM | HL-60 > 100 µM | NCI-H460 > 100 µM | K562 > 100 µM | CAKI-1 > 100 µM | MOLT-4 > 100 µM | SNB-75 > 100 µM | NCI/ADR-RES > 100 µM | UO-31 > 100 µM | Hs-578T > 100 µM | MCF7 > 100 µM | MDA-MB-231 > 100 µM | SK-MEL-2 > 100 µM | HCC 2998 > 100 µM | DU-145 > 100 µM

O=C1CCN/C(=N\C(=O)C(F)(F)F)N1CCc1c[nH]c2ccccc12
inactive: RXF 393 > 100 µM | PC-3 > 100 µM | SK-MEL-28 > 100 µM | SF-539 > 100 µM | SK-MEL-5 > 100 µM | SNB-19 > 100 µM | HL-60 > 100 µM | NCI-H460 > 100 µM | K562 > 100 µM | CAKI-1 > 100 µM | MOLT-4 > 100 µM | NCI/ADR-RES > 100 µM | UO-31 > 100 µM | Hs-578T > 100 µM | MCF7 > 100 µM | MDA-MB-231 > 100 µM | SK-MEL-2 > 100 µM | HCC 2998 > 100 µM | DU-145 > 100 µM

C=C(C)C(=O)/N=C(\N)NC#N
inactive: RXF 393 36.6 µM | PC-3 158 µM | SK-MEL-28 28.9 µM | SF-539 34.8 µM | SK-MEL-5 75.2 µM | SNB-19 182 µM | HL-60 20 µM | NCI-H460 > 75 µM | K562 21.8 µM | CAKI-1 24.4 µM | SNB-75 67.9 µM | NCI/ADR-RES 35.9 µM | UO-31 > 62.7 µM | Hs-578T 161 µM | MCF7 47.5 µM | MDA-MB-231 48.2 µM | SK-MEL-2 47.2 µM | HCC 2998 132 µM | DU-145 70.5 µM

O=C(Oc1c(Cl)cc(C2(c3cc(Cl)c(OC(=O)c4ccccc4)c(Cl)c3)CCCCC2)cc1Cl)c1ccccc1
inactive: RXF 393 11.5 µM | PC-3 9.42 µM | SK-MEL-28 14.7 µM | SF-539 14.3 µM | SK-MEL-5 10.6 µM | SNB-19 17.6 µM | HL-60 3.32 µM | NCI-H460 6.65 µM | K562 7.96 µM | CAKI-1 5.01 µM | MOLT-4 5 µM | SNB-75 11.7 µM | NCI/ADR-RES 11.6 µM | UO-31 18.5 µM | Hs-578T 14.8 µM | MCF7 11.1 µM | MDA-MB-231 13.7 µM | SK-MEL-2 11.2 µM | HCC 2998 10.1 µM | DU-145 12.2 µM

CC1C(=O)CC[C@@]2(C)C(=O)CCCC12O (some centres not stated)
inactive: RXF 393 > 100 µM | PC-3 > 100 µM | SK-MEL-28 > 100 µM | SF-539 > 100 µM | SK-MEL-5 > 100 µM | SNB-19 > 100 µM | HL-60 > 100 µM | NCI-H460 > 100 µM | K562 > 100 µM | CAKI-1 > 100 µM | MOLT-4 > 100 µM | NCI/ADR-RES > 100 µM | UO-31 > 100 µM | Hs-578T > 100 µM | MCF7 > 100 µM | MDA-MB-231 > 100 µM | SK-MEL-2 > 100 µM | HCC 2998 > 100 µM | DU-145 > 100 µM

CCN(CC)CC(O)c1ccc2ccc3ccccc3c2c1 (configuration not stated)
inactive: RXF 393 16.8 µM | PC-3 15.8 µM | SK-MEL-28 19.7 µM | SF-539 12.6 µM | SK-MEL-5 13.9 µM | SNB-19 14.7 µM | HL-60 14.1 µM | NCI-H460 17.5 µM | K562 17 µM | CAKI-1 13.1 µM | MOLT-4 16.4 µM | SNB-75 19.1 µM | NCI/ADR-RES 16.3 µM | UO-31 11.2 µM | Hs-578T 18.7 µM | MCF7 14.8 µM | MDA-MB-231 14.5 µM | SK-MEL-2 16.1 µM | HCC 2998 11 µM | DU-145 19 µM

CC1=C(C#N)C2C(=C(N)Oc3ccccc32)C(N)=N1 (configuration not stated)
inactive: RXF 393 22.7 µM | PC-3 33.3 µM | SF-539 30.1 µM | SK-MEL-5 23.7 µM | SNB-19 21.8 µM | HL-60 29.1 µM | K562 29.7 µM | CAKI-1 19.1 µM | MOLT-4 75 µM | SNB-75 18.7 µM | NCI/ADR-RES 19.3 µM | UO-31 17.4 µM | Hs-578T 26.1 µM | MCF7 6.56 µM | MDA-MB-231 14 µM | SK-MEL-2 20.1 µM | HCC 2998 29.4 µM | DU-145 21.1 µM

Cn1c2ccc3cc2c(=S)c2cc(ccc21)OCCOCCOCCOCCOCCO3
inactive: RXF 393 > 10 µM | PC-3 > 10 µM | SK-MEL-28 > 10 µM | SF-539 > 10 µM | SK-MEL-5 > 10 µM | SNB-19 > 10 µM | HL-60 > 10 µM | NCI-H460 > 10 µM | K562 > 10 µM | CAKI-1 > 10 µM | MOLT-4 > 10 µM | SNB-75 > 10 µM | NCI/ADR-RES > 10 µM | Hs-578T > 10 µM | MCF7 > 10 µM | MDA-MB-231 > 10 µM | SK-MEL-2 > 10 µM | HCC 2998 > 10 µM | DU-145 > 10 µM

Cn1c(=S)[nH]c(N)c(Cc2ccccc2)c1=O
inactive: RXF 393 > 100 µM | PC-3 > 100 µM | SK-MEL-28 > 100 µM | SF-539 > 100 µM | SK-MEL-5 > 100 µM | SNB-19 > 100 µM | HL-60 > 100 µM | NCI-H460 > 100 µM | K562 78.5 µM | CAKI-1 > 100 µM | MOLT-4 41.8 µM | SNB-75 20.3 µM | NCI/ADR-RES 64.4 µM | Hs-578T 39 µM | MCF7 > 100 µM | MDA-MB-231 > 100 µM | SK-MEL-2 > 100 µM | HCC 2998 > 100 µM | DU-145 > 100 µM

COc1ccc(-c2coc3cc(OC)cc(O)c3c2=O)cc1 [4',7-DIMETHOXY-5-HYDROXYGENISTEIN]
inactive: RXF 393 27.9 µM | PC-3 > 100 µM | SK-MEL-28 > 100 µM | SF-539 78.3 µM | SK-MEL-5 > 100 µM | SNB-19 31.4 µM | HL-60 > 100 µM | NCI-H460 > 100 µM | K562 > 100 µM | CAKI-1 > 100 µM | SNB-75 > 100 µM | NCI/ADR-RES > 100 µM | Hs-578T 31.1 µM | MCF7 > 100 µM | MDA-MB-231 31 µM | HCC 2998 > 100 µM | DU-145 > 100 µM

— ChEMBL document CHEMBL1201862, “PubChem BioAssay data set” (2004)
